From ChEMBL document CHEMBL1909046, “DrugMatrix in vitro pharmacology data”
*1 amine or outer side, *2 acyl side, *3 side chain or, on linkers, in order; H or OH if unused. Where a SMILES comes first, the peptide text is derived from it. Bridges are numbered along the chain shown (N, C = ends). Roman numbers before positions name the chains, in order. [ ]: non-standard residue; d: D form. Actinocin(1to9) = Cc1c2oc3c(C)ccc(C(=O)[*:2])c3nc-2c(C(=O)[*:1])c(N)c1=O; NMeV = CN[C@H](C(=O)O)C(C)C; Sar = CNCC(=O)O

Assays:
[1] = molecular target: T1, Amine oxidase [flavin-containing] A (Homo sapiens, UniProt P21397); experiment: DRUGMATRIX: Monoamine Oxidase MAO-A enzyme inhibition (substrate: Kynuramine); set-up: species or system BTI-TN-5B1-4; conditions: bti-tn-5b1-4; Not Active = under 50% inhibition at 10 µM
T1 sequence (P21397 whole entry): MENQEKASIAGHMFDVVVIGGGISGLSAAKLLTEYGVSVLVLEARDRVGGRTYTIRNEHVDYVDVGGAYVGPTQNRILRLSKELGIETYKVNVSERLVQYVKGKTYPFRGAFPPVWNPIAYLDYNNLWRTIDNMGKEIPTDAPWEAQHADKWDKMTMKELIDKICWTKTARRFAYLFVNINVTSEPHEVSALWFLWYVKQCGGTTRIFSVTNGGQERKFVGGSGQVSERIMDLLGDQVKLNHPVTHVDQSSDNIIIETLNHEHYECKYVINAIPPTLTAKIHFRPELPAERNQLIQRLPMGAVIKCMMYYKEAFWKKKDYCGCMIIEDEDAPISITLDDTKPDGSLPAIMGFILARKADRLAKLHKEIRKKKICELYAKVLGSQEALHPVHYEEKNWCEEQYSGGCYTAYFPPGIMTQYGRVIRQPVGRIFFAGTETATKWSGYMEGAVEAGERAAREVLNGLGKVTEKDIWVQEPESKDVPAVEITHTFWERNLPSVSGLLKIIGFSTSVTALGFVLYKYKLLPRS

[2] = molecular target: Vascular endothelial growth factor receptor 1 (Homo sapiens, UniProt P17948); assay type: cell-based; conditions: huvec; further: in other assays of this panel Not Active means under 50% inhibition at 10 µM
Vascular endothelial growth factor receptor 1, sequence (P17948 whole entry): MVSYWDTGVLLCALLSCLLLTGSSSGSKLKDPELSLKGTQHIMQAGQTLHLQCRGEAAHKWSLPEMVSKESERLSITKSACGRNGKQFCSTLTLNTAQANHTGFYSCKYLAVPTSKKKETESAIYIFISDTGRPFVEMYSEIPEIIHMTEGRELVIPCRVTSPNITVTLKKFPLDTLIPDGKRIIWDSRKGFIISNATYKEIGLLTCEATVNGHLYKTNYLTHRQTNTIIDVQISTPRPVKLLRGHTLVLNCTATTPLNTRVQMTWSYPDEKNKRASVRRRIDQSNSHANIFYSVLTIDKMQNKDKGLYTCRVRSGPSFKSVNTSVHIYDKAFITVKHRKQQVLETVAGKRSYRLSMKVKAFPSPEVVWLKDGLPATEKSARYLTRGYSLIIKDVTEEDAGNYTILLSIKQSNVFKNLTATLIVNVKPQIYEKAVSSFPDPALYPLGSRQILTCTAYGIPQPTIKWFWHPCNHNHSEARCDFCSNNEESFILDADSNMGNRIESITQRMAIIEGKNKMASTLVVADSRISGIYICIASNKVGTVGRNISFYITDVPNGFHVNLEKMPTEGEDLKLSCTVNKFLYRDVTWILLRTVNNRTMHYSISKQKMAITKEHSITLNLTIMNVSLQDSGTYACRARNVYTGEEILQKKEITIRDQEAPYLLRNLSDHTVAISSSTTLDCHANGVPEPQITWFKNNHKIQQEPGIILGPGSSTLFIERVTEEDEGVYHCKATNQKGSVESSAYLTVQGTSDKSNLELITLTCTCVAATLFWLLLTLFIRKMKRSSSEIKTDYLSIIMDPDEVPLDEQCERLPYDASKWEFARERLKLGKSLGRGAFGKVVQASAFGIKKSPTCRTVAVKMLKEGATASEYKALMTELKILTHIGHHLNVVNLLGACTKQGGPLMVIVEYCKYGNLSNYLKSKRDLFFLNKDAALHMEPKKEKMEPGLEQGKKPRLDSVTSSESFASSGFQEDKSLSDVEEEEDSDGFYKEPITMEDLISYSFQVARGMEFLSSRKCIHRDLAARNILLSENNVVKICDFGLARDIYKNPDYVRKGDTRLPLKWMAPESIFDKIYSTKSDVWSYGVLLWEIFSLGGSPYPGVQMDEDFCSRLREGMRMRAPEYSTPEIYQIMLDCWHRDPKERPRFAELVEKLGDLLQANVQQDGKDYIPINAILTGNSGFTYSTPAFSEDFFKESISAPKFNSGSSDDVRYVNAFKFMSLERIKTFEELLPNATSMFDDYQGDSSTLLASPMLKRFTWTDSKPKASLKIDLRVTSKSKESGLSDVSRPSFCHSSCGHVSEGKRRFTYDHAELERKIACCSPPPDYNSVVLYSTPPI

[3] = DRUGMATRIX: Phosphodiesterase PDE3 enzyme inhibition (substrate: [3H]cAMP + cAMP); assay type: tissue-based, Homo sapiens; conditions: platelet; Not Active = under 50% inhibition at 10 µM
[4] = molecular target: 5-hydroxytryptamine receptor 2B (Homo sapiens, UniProt P41595); assay type: cell membranes, CHO-K1, Membrane; conditions: cho-k1; further: in other assays of this panel Not Active means under 50% inhibition at 10 µM
5-hydroxytryptamine receptor 2B, sequence (P41595 whole entry): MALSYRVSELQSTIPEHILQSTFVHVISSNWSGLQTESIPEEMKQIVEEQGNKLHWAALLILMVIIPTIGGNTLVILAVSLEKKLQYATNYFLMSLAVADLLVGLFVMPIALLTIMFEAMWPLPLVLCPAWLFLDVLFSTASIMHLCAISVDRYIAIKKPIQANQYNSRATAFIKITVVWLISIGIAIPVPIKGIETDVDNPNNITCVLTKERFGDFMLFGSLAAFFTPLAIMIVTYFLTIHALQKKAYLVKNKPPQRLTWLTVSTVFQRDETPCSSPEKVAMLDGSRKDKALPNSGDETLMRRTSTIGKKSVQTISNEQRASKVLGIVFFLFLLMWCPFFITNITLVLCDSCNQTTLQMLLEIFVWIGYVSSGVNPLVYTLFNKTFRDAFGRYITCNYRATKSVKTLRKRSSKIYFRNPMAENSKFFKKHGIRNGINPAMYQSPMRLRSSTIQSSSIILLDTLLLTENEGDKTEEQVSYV

[5] = molecular target: T2, Alpha-1B adrenergic receptor (Rattus norvegicus, UniProt P15823); experiment: DRUGMATRIX: Alpha-1B adrenergic receptor radioligand binding (ligand: prazosin); assay type: cell membranes, Wistar, Liver, Membrane; conditions: Not Active = under 50% inhibition at 10 µM
T2 sequence (P15823 whole entry): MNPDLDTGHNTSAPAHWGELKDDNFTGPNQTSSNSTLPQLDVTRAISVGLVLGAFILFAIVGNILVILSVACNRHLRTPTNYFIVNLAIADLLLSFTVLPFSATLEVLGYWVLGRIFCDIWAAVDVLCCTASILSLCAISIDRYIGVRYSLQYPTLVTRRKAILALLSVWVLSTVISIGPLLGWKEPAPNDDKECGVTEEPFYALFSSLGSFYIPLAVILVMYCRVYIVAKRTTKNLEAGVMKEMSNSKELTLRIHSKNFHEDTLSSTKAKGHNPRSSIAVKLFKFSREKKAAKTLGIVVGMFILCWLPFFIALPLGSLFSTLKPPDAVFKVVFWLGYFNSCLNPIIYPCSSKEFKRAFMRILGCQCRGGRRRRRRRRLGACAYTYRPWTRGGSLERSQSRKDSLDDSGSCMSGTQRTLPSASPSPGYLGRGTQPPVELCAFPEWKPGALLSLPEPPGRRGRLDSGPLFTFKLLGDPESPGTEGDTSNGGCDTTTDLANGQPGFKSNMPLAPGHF

[6] = molecular target: cGMP-specific 3',5'-cyclic phosphodiesterase (Homo sapiens, UniProt O76074); experiment: DRUGMATRIX: Phosphodiesterase PDE5 enzyme inhibition (substrate: [3H]cGMP + cGMP); assay type: tissue-based; conditions: platelet; Not Active = under 50% inhibition at 10 µM
[7] = DRUGMATRIX: Sodium/nucleoside co-transporter radioligand binding (ligand: nitrobenzylthioinosine); assay type: cell membranes, Cavia porcellus, Dunkin-Hartley, Cerebral cortex, Membrane; conditions: Not Active = under 50% inhibition at 10 µM
[8] = molecular target: T3, C-X-C chemokine receptor type 1 (Homo sapiens, UniProt P25024); further: in other assays of this panel Not Active means under 50% inhibition at 10 µM
T3 sequence (P25024 whole entry): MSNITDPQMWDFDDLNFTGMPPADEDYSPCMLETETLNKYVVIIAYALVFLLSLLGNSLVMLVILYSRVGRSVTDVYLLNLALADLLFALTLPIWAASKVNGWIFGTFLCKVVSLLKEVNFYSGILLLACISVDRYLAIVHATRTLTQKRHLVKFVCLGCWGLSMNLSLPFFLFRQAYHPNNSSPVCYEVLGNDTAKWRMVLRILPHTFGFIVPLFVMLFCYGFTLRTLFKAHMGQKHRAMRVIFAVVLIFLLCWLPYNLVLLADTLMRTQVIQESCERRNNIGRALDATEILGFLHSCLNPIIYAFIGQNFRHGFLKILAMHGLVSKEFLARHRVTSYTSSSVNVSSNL

C[C@H]1O[C@@H](O[C@H]2[C@@H](O)C[C@H](O[C@H]3[C@@H](O)C[C@H](O[C@H]4CC[C@@]5(C)[C@H](CC[C@@H]6[C@@H]5C[C@@H](O)[C@]5(C)[C@@H](C7=CC(=O)OC7)CC[C@]65O)C4)O[C@@H]3C)O[C@@H]2C)C[C@H](O)[C@@H]1O [DIGOXIN]
Not Active: IC50 [1] | IC50 [2] | IC50 [3] | Ki [3] | IC50 [4] | IC50 [5] | IC50 [6] | IC50 [7] | Ki [7] | IC50 [8]

Cc1c2oc3c(C)ccc(C(=O)N[C@@H]4C(=O)N[C@H](C(C)C)C(=O)N5CCC[C@H]5C(=O)N(C)CC(=O)N(C)[C@@H](C(C)C)C(=O)O[C@@H]4C)c3nc-2c(C(=O)N[C@@H]2C(=O)N[C@H](C(C)C)C(=O)N3CCC[C@H]3C(=O)N(C)CC(=O)N(C)[C@@H](C(C)C)C(=O)O[C@@H]2C)c(N)c1=O [DACTINOMYCIN] (I: T[dV]P[Sar][NMeV] / II: T[dV]P[Sar][NMeV]; ester I:1-I:C, II:1-II:C; linker I:N-II:N via Actinocin(1to9))
Not Active: IC50 [1] | IC50 [2] | IC50 [3] | Ki [3] | IC50 [4] | IC50 [5] | IC50 [6] | IC50 [7] | Ki [7] | IC50 [8]

C=C(C)C1(O)OC(=O)C=C1OC (stereo unspecified) [PENICILLIC ACID]
Not Active: IC50 [1] | IC50 [2] | IC50 [3] | Ki [3] | IC50 [4] | IC50 [5] | IC50 [6] | IC50 [7] | Ki [7] | IC50 [8]

CN(Cc1ccc(C(C)(C)C)cc1)Cc1cccc2ccccc12 [BUTENAFINE]
Not Active: IC50 [1] | IC50 [2] | IC50 [3] | Ki [3] | IC50 [4] | IC50 [5] | IC50 [6] | IC50 [7] | Ki [7] | IC50 [8]

NC(=O)N1c2ccccc2CCc2ccccc21
Not Active: IC50 [1] | IC50 [2] | IC50 [3] | Ki [3] | IC50 [4] | IC50 [5] | IC50 [6] | IC50 [7] | Ki [7] | IC50 [8]

Cc1onc(-c2ccccc2Cl)c1C(=O)N[C@@H]1C(=O)N2[C@@H]1SC(C)(C)[C@@H]2C(=O)O [CLOXACILLIN]
Not Active: IC50 [1] | IC50 [2] | IC50 [3] | Ki [3] | IC50 [4] | IC50 [5] | IC50 [6] | IC50 [7] | Ki [7] | IC50 [8]

COc1ccc(C[C@H]2NC[C@H](O)[C@H]2OC(C)=O)cc1 [ANISOMYCIN]
Not Active: IC50 [1] | Ki [1] | IC50 [2] | Ki [2] | IC50 [3] | Ki [3] | IC50 [4] | Ki [4] | IC50 [5] | Ki [5] | IC50 [6] | Ki [6] | IC50 [7] | Ki [7] | IC50 [8] | Ki [8]

CCn1cc(C(=O)O)c(=O)c2cc(F)c(N3CCNCC3)cc21 [NORFLOXACIN]
Not Active: IC50 [1] | IC50 [2] | IC50 [3] | Ki [3] | IC50 [4] | IC50 [5] | IC50 [6] | IC50 [7] | Ki [7] | IC50 [8]

CCC1(c2ccc(N)cc2)CCC(=O)NC1=O (stereo unspecified) [AMINOGLUTETHIMIDE]
Not Active: IC50 [1] | IC50 [2] | IC50 [3] | Ki [3] | IC50 [4] | IC50 [5] | IC50 [6] | IC50 [7] | Ki [7] | IC50 [8]

Cc1ccc(/N=C/N(C)/C=N/c2ccc(C)cc2C)c(C)c1 [AMITRAZ]
Not Active: IC50 [1] | IC50 [2] | IC50 [3] | Ki [3] | IC50 [4] | IC50 [5] | IC50 [6] | IC50 [7] | Ki [7] | IC50 [8]
